Experimental data as given in US20180103845A1, “METHOD FOR ASSESSING IRRITANCY TO BIOLOGICAL SAMPLES” (OLYMPUS CORPORATION, priority 2016, published 2018).

Test system: human skin models based on SkinEthic RHE
Assay: Skin irritation test on three-dimensional human skin model (TG439 exposure, Nuclear-ID live/dead nuclear fluorescence, 3D confocal imaging)
Description: As such a biological sample 1, a three-dimensional human skin model approved in the OECD Testing Guidelines (TG) 439 (In Vitro Skin Irritation: Reconstructed Human Epidermis Test Method), such as SkinEthic RHE (manufactured by SkinEthic, France) having a thickness of about 100 μm, is favorably used. […] For irritancy assessment, dermal tissue may be contained in addition to the epidermis.
The chemical treatment step S1 is carried out in accordance with TG439. […]
Next, in the fluorescence labeling step S2, the nuclei of the cells in the biological tissues are fluorescence-labeled with a predetermined fluorescent marker. For fluorescence labeling, for example, a first fluorescent dye that specifically labels the nuclei of living cells, and a second fluorescent dye that emits fluorescence of a wavelength different from that of the first fluorescent dye and that specifically labels the nuclei of dead cells are used. […]
Next, in the image acquisition step S3, fluorescence images of the nuclei of living cells and the nuclei of dead cells at different depth positions in the biological sample are acquired using a fluorescence microscope.
FIGS. 5 and 6 show fluorescence images of biological samples exposed to 1% and 10% Triton-X, respectively. […] FIGS. 9 and 10 show fluorescence images of biological samples exposed to PBS and a 5% SDS solution, as controls. […]

Row | Compound | structures such as the nuclei of dead cells (human skin model exposed to 5% SDS solution, positive control (FIG. 10)) | three-dimensional structures of cells, such as the nuclei (human skin model exposed to 1% and 10% chemical (FIGS. 5 to 8), 42 min exposure, 42 h culture per TG439)
1 | CCCCCCCCCCCCOS(=O)(=O)[O-].[Na+] [SDS, sodium dodecyl sulphate] | disrupted | 
2 | Triton-X |  | preserved
